According to ChEMBL document CHEMBL5620385, “Orally bioavailable styryl derivative of rohitukine-N-oxide inhibits CDK9/T1 and the growth of pancreatic cancer cells” (Eur J Med Chem, 2023):

Columns and labels:
CDK9/cyclin T1 = CDK9/cyclin T1 (Homo sapiens, UniProt P50750); experiment: Inhibition of CDK9/cyclin T1 (unknown origin) by ADP-Glo assay; assay type: protein-complex assay
HCT-116 [1] = experiment: Antiproliferative activity against human HCT-116 cells assessed as cell growth inhibition at 10 uM incubated for 48 hrs by MTT assay relative to control; assay type: functional
CDK9/Cyclin K = CDK9/Cyclin K (Homo sapiens, UniProt P50750); experiment: Inhibition of CDK9/cyclin K (unknown origin) by ADP-Glo assay; assay type: protein-complex assay
Sequence of CDK9/Cyclin K (P50750 whole entry): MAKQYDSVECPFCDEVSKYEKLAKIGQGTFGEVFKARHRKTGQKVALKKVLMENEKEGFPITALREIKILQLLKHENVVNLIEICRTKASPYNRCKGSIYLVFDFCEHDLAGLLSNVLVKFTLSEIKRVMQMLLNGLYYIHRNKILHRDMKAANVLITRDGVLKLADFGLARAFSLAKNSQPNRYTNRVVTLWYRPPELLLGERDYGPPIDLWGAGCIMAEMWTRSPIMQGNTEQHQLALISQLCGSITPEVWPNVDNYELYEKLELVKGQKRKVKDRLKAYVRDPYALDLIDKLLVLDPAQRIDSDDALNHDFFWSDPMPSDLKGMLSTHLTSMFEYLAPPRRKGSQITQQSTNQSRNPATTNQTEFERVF
Sequence of CDK9/Cyclin K (O75909 whole entry, further chain): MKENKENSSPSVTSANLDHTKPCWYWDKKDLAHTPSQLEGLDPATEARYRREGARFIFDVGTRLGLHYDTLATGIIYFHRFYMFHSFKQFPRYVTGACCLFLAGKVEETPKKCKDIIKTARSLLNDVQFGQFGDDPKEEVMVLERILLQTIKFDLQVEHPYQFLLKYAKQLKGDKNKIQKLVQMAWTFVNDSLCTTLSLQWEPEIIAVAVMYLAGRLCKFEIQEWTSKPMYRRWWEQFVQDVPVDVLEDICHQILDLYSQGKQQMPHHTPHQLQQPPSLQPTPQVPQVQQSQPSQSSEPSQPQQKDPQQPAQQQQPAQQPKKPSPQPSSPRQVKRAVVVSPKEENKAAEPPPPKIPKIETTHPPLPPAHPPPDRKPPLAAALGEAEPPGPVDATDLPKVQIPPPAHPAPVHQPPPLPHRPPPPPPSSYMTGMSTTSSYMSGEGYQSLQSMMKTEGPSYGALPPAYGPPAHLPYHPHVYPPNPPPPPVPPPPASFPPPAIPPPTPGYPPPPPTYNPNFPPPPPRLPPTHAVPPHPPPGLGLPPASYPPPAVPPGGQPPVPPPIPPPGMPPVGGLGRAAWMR

[2] = target: CDK9/Cyclin K (Homo sapiens) (UniProt P50750+O75909); experiment: Inhibition of CDK9/cyclin K (unknown origin) at 10 uM by ADP-Glo assay relative to control; assay type: protein-complex assay
[3] = Antiproliferative activity against HEK293 cells assessed as cell growth inhibition incubated for 48 hrs by MTT assay; assay type: toxicity, cell-based; conditions: human
[4] = target: Cyclin-dependent kinase 7/ cyclin H (Homo sapiens, UniProt P50613); experiment: Inhibition of CDK7/cyclin H (unknown origin) by ADP-Glo assay; assay type: protein-complex assay
Sequence of Cyclin-dependent kinase 7/ cyclin H (P51946 whole entry): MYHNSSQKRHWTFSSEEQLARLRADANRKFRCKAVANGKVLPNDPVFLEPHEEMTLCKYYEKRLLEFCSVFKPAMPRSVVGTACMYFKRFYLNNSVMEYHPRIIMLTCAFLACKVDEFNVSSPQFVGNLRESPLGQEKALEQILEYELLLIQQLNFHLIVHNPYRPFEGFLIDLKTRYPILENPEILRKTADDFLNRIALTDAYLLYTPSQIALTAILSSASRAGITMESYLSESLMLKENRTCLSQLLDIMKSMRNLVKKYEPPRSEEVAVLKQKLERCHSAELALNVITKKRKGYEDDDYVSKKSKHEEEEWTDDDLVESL
Sequence of Cyclin-dependent kinase 7/ cyclin H (P50613 whole entry): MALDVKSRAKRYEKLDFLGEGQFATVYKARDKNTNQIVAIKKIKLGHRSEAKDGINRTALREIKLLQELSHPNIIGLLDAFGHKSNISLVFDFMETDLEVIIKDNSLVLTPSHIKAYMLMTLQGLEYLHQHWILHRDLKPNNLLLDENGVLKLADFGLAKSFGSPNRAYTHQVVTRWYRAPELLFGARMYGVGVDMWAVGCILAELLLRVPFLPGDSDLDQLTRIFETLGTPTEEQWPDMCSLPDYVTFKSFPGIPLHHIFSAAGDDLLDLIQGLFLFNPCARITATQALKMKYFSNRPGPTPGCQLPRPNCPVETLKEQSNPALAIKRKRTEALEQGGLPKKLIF

MIA PaCa-2 [5] = experiment: Antiproliferative activity against human MIA PaCa-2 cells assessed as cell growth inhibition at 10 uM incubated for 48 hrs by MTT assay relative to control; assay type: functional
HCT-116 [6] = experiment: Antiproliferative activity against human HCT-116 cells assessed as cell growth inhibition incubated for 48 hrs by MTT assay; assay type: functional
[7] = target: Cyclin-dependent kinase 7/ cyclin H (Homo sapiens) (UniProt P51946+P50613); experiment: Inhibition of CDK7/cyclin H (unknown origin) at 10 uM by ADP-Glo assay relative to control; assay type: protein-complex assay
[8] = Antiproliferative activity against HEK293 cells assessed as cell growth inhibition at 10 uM incubated for 48 hrs by MTT assay relative to control; assay type: toxicity, cell-based; conditions: human
MIA PaCa-2 [9] = experiment: Antiproliferative activity against human MIA PaCa-2 cells assessed as cell growth inhibition incubated for 48 hrs by MTT assay; assay type: functional
MIA PaCa-2 [10] = experiment: Induction of apoptosis in human MIA PaCa-2 cells assessed as chromatin condensation incubated for 48 hrs by DAPI staining based analysis; assay type: functional, cell-based
MIA PaCa-2 [11] = experiment: Induction of apoptosis in human MIA PaCa-2 cells assessed as apoptotic body formation incubated for 48 hrs by DAPI staining based analysis; assay type: functional, cell-based
MIA PaCa-2 [12] = experiment: Induction of mitochondrial membrane potential loss in human MIA PaCa-2 cells incubated for 48 hrs by Rhodamine-123 dye based analysis; assay type: functional, cell-based
[13] = Cmax in BALB/c mouse at 30 mg/kg, po measured for 6 hrs by LC-MS/MS analysis; assay type: ADME, organism-based; conditions: in vivo
[14] = Tmax in BALB/c mouse at 30 mg/kg, po measured for 6 hrs by LC-MS/MS analysis; assay type: ADME, organism-based; conditions: in vivo
[15] = Clearance in BALB/c mouse at 30 mg/kg, po measured for 6 hrs by LC-MS/MS analysis; assay type: ADME, organism-based; conditions: in vivo
[16] = AUC(0 to t) in BALB/c mouse at 30 mg/kg, po measured for 6 hrs by LC-MS/MS analysis; assay type: ADME, organism-based; conditions: in vivo
[17] = C0 in BALB/c mouse at 2.5 mg/kg, iv measured for 6 hrs by LC-MS/MS analysis; assay type: ADME, organism-based; conditions: in vivo
[18] = Half life in BALB/c mouse at 2.5 mg/kg, iv measured for 6 hrs by LC-MS/MS analysis; assay type: ADME, organism-based; conditions: in vivo
[19] = AUC(0 to t) in BALB/c mouse at 2.5 mg/kg, iv measured for 6 hrs by LC-MS/MS analysis; assay type: ADME, organism-based; conditions: in vivo
[20] = Volume of distribution in BALB/c mouse at 2.5 mg/kg, iv measured for 6 hrs by LC-MS/MS analysis; assay type: ADME, organism-based; conditions: in vivo
[21] = Volume of distribution in BALB/c mouse at 30 mg/kg, po measured for 6 hrs by LC-MS/MS analysis; assay type: ADME, organism-based; conditions: in vivo
[22] = Metabolic stability in mouse liver microsomes assessed as compound remaining at 10 uM measured after 30 mins in presence of NADPH by HPLC analysis; assay type: ADME, Microsome; conditions: 0.5 h
[23] = AUC(0 to infinity) in BALB/c mouse at 2.5 mg/kg, iv measured for 6 hrs by LC-MS/MS analysis; assay type: ADME, organism-based; conditions: in vivo
[24] = Clearance in BALB/c mouse at 2.5 mg/kg, iv measured for 6 hrs by LC-MS/MS analysis; assay type: ADME, organism-based; conditions: in vivo
[25] = Half life in BALB/c mouse at 30 mg/kg, po measured for 6 hrs by LC-MS/MS analysis; assay type: ADME, organism-based; conditions: in vivo
[26] = Metabolic stability in human liver microsomes assessed as compound remaining at 10 uM measured after 30 mins in presence of NADPH by HPLC analysis; assay type: ADME, Microsome; conditions: 0.5 h
MIA PaCa-2 [27] = experiment: Induction of intracellular ROS generation in human MIA PaCa-2 cells incubated for 48 hrs by DCFDA dye based analysis; assay type: functional, cell-based
[28] = AUC(0 to infinity) in BALB/c mouse at 30 mg/kg, po measured for 6 hrs by LC-MS/MS analysis; assay type: ADME, organism-based; conditions: in vivo

Sequence of CDK9/cyclin T1 (O60563 whole entry): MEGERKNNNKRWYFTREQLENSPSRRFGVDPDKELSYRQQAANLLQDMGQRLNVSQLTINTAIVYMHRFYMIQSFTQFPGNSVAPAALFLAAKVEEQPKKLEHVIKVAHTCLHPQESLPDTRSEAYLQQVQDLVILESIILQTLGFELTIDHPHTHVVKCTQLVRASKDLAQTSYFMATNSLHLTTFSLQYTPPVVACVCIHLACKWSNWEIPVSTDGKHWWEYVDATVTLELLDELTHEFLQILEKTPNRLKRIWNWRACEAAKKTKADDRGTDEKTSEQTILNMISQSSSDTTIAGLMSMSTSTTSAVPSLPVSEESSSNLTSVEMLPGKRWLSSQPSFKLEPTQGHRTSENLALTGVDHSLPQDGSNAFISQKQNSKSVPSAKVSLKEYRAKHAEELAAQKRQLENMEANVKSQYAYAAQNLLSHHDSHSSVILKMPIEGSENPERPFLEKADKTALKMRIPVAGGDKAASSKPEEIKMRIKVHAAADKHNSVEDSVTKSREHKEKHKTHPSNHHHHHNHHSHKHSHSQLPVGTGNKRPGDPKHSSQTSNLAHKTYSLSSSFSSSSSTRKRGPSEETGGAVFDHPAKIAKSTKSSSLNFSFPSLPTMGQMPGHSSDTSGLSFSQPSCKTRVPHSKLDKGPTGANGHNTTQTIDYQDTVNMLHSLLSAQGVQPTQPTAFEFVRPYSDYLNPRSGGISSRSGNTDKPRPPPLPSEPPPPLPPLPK
Sequence of CDK9/cyclin T1 (P50750 whole entry): as the sequence (P50750 whole entry) above

Compound | IC50 (CDK9/cyclin T1) | IC50 (CDK9/Cyclin K) | inhibition [2] | IC50 [4] | GI50 (HCT-116 [6]) | inhibition [7] | GI50 (MIA PaCa-2 [9]) | inhibition at 10 µM (HCT-116 [1]) | GI50 at 48 h [3] | inhibition at 10 µM (MIA PaCa-2 [5]) | inhibition at 48 h, 10 µM [8] | further results
CC(=O)O[C@H]1C(=O)[C@@]2(C)[C@H]([C@H](OC(=O)c3ccccc3)[C@]3(O)C[C@H](OC(=O)[C@H](O)[C@@H](NC(=O)c4ccccc4)c4ccccc4)C(C)=C1C3(C)C)[C@]1(OC(C)=O)CO[C@@H]1C[C@@H]2O |  |  |  |  |  |  |  |  |  |  |  | Activity (MIA PaCa-2 [10]): Dose-Dependent Effect; Activity (MIA PaCa-2 [11]): Dose-Dependent Effect; Activity (MIA PaCa-2 [12]): Dose-Dependent Effect
Cc1cc(=O)c2c(O)cc(O)c([C@H]3CC[N+](C)([O-])C[C@H]3O)c2o1 (stereo not given in full) | 7650 nM | > 10 µM | 37.9% | > 10 µM | > 10 µM | 12.8% | > 10 µM | 34% | > 100 µM | 18.8% | 14.3% | 
C[N+]1([O-])CC[C@H](c2c(O)cc(O)c3c(=O)cc(/C=C/c4ccc(Cl)cc4)oc23)[C@H](O)C1 (stereo not given in full) | 3850 nM | > 10 µM | 35.8% | > 10 µM | > 10 µM | 18.2% | > 10 µM | 39.3% | 46.3 µM | 44.2% | 9.1% | 
C[N+]1([O-])CC[C@H](c2c(O)cc(O)c3c(=O)cc(/C=C/c4cccc(Cl)c4)oc23)[C@H](O)C1 (stereo not given in full) | 3710 nM | > 10 µM | 37.3% | > 10 µM | > 10 µM | 19.4% | > 10 µM | 27.4% | > 100 µM | 36.3% | 9.2% | 

More lines, main results first:

IC50 (CDK9/cyclin T1) | IC50 (CDK9/Cyclin K) | inhibition [2] | IC50 [4] | GI50 (HCT-116 [6]) | inhibition [7] | GI50 (MIA PaCa-2 [9]) | Compound | inhibition at 10 µM (HCT-116 [1]) | GI50 at 48 h [3] | inhibition at 10 µM (MIA PaCa-2 [5]) | inhibition at 48 h, 10 µM [8] | further results
1990 nM | > 10 µM | 44.2% | > 10 µM | > 10 µM | 41.7% | > 10 µM | C[N+]1([O-])CC[C@H](c2c(O)cc(O)c3c(=O)cc(/C=C/c4ccccc4)oc23)[C@H](O)C1 (stereo not given in full) | 20.5% | > 100 µM | 21.5% | 8.2% | 
3 nM | 0.32 µM | 83.6% |  | 9.32 µM | 81.6% | 1.94 µM | CN1CC[C@H](c2c(O)cc(O)c3c(=O)cc(/C=C/c4c(Cl)cccc4Cl)oc23)[C@H](O)C1 | 49.5% | > 100 µM | 82.5% | 20.6% | 
166 nM | 2.81 µM | 61.7% | 1.46 µM | 5.1 µM | 62.7% | 6.07 µM | C[N+]1([O-])CC[C@H](c2c(O)cc(O)c3c(=O)cc(/C=C/c4ccccc4Cl)oc23)[C@H](O)C1 (stereo not given in full) | 67% | 90.3 µM | 56.3% | 29.7% | Cmax [13]: 731 ng/mL; Tmax [14]: 4.98 min; Activity (MIA PaCa-2 [10]): Dose-Dependent Effect; CL/F [15]: 953 mL/min/kg; AUC(0-t) at 6 h [16]: 510 ng·h/mL; C0 at 6 h [17]: 5720 ng/mL; Activity (MIA PaCa-2 [11]): Dose-Dependent Effect; half-life [18]: 17.4 min; Activity (MIA PaCa-2 [12]): Dose-Dependent Effect; AUC(0-t) at 6 h [19]: 341 ng·h/mL; Vd [20]: 3 L/kg; Vd [21]: 32.4 L/kg; Stability [22]: Stable; AUC(0-inf) [23]: 346 ng·h/mL; clearance [24]: 120 mL/min/kg; half-life [25]: 102 min; Stability [26]: Stable; Activity (MIA PaCa-2 [27]): Dose-Dependent Effect; AUC(0-inf) [28]: 525 ng·h/mL
231 nM | 2.41 µM | 60.2% | 1.62 µM | 9.32 µM | 49.4% | 5.35 µM | C[N+]1([O-])CC[C@H](c2c(O)cc(O)c3c(=O)cc(/C=C/c4ccccc4Br)oc23)[C@H](O)C1 (stereo not given in full) | 36.3% | 95.2 µM | 70.3% | 17.2% | 
676 nM | 8.47 µM | 58.9% | > 10 µM | > 10 µM | 15.9% | 5.58 µM | C[N+]1([O-])CC[C@H](c2c(O)cc(O)c3c(=O)cc(/C=C/c4ccccc4F)oc23)[C@H](O)C1 (stereo not given in full) | 18.2% | > 100 µM | 31.8% | 18.8% | 
399 nM | 3.44 µM | 65.8% | 6.44 µM | 5.44 µM | 47.5% | 9.7 µM | C[N+]1([O-])CC[C@H](c2c(O)cc(O)c3c(=O)cc(/C=C/c4c(Cl)cccc4Cl)oc23)[C@H](O)C1 (stereo not given in full) | 72.3% | > 100 µM | 53.6% | 24.1% | 
